Source: publication PMC10208570, “Peptidomimetic antibiotics disrupt the lipopolysaccharide transport bridge of drug-resistant Enterobacteriaceae” (Science Advances, 2023)
Converted amounts (≈) assume the structure as drawn. Where a SMILES comes first, the peptide text is derived from it. Bridges are numbered along the chain shown (N, C = ends). [ ]: non-standard residue; d: D form. The star is where a group is joined. Val(Nα-amidino) = CC(C)[C@H](NC(=N)N)C(=O)*; Hyp = O=C(O)[C@@H]1C[C@@H](O)CN1; Pen = CC(C)(S)[C@H](N)C(=O)O; dDab = NCC[C@@H](N)C(=O)O; Dab = NCC[C@H](N)C(=O)O

How the values were obtained:
[1] = Tolerability (single day, IV bolus q12h); type: in vivo, CD-1 mice; conditions: for Tolerability (IV bolus, q12h): mice died: single day
Protocol: Two different study designs were used to determine the potential toxicity of these compounds, when given BID via intravenous bolus (injection) 12 hours apart to CD-1 mice. In the first type of study, male mice were dosed on a single day at three escalating dose levels (three mice per group), while the second type of study male mice (nine mice per group) were dosed for seven consecutive days with the same administration regimen (q12h). […] Detailed clinical observations were conducted up to at least 3 hours after the first daily dosing and up to at least 1 hour after the second daily dosing. In addition, the Irwin battery of tests was used to assess the mice neurobiological and physiological state during the single day study at 30, 60, 120, 180, and 240 min after the first administration. The following parameters were included in the observations: occurrence of abnormal gait, catalepsy, piloerection, abnormal respiration, increase or decrease in spontaneous activity, spontaneous activity following audible stimuli (tapping on side of cage), touch response, and body tonus. Any additional symptoms observed were also reported.

in vitro = type: cell-based; conditions: human
Protocol: The cytotoxicity of compounds was determined by determining the number of viable cells using the Sigma Cell Counting Kit-8 (WST-8). HeLa cells were incubated at 37°C and 5% CO2 for 24 hours, after which the medium was replaced with fresh medium containing dilutions of compounds. […]

Klebsiella pneumoniae = conditions: CLSI microdilution method; LptA sequence identity 88
Protocol: (§1) MIC assays [Clinical and Laboratory Standards Institute (CLSI) methodology] and serial passage studies were performed as described by Luther et al. ([6]). […] Resistant mutants were isolated, and their MIC values were determined and sent to Microbes NG (Birmingham, United Kingdom) for whole-genome sequencing and bioinformatic analysis.

Enterobacter aerogenes = conditions: CLSI microdilution method; LptA sequence identity 88
Protocol: as §1

Moraxella catarrhalis = conditions: CLSI microdilution method; LptA sequence identity 28
Protocol: as §1

Shigella flexneri = conditions: CLSI microdilution method; LptA sequence identity 100
Protocol: as §1

[2] = system: K. pneumoniae NCTC 13443 (NDM-1) LptA Q62L mutant; test: microbe, parasite or virus in culture; conditions: for MIC K. pneumoniae NCTC 13443 (NDM-1) Q62L mutant: CLSI method, clone harboring LptA Q62L
How it was run: (§2)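 First, MICs were measured per CLSI. Next, organisms underwent serial passage. Finally, resistant mutants were isolated, their MICs determined, and whole genomes sequenced with bioinformatic analysis.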

[3] = system: E. coli ATCC 25922 LptA Q62L mutant; test: microbe, parasite or virus in culture; conditions: for MIC E. coli ATCC 25922 Q62L mutant: CLSI method, clone harboring LptA Q62L
How it was run: as §2

[4] = system: K. pneumoniae ATCC 43816 (parent / WT); test: microbe, parasite or virus in culture; conditions: ATCC 43816
How it was run: as §2

[5] = system: K. pneumoniae NCTC 13443 (NDM-1) (parent / WT); test: microbe, parasite or virus in culture; conditions: for MIC K. pneumoniae NCTC 13443 (NDM-1) Parent: CLSI method, parent strain
How it was run: as §2

[6] = system: E. coli ATCC 25922 (parent / WT); test: microbe, parasite or virus in culture; conditions: for MIC E. coli ATCC 25922 Parent: CLSI method, parent strain
How it was run: as §2

LptAmQ62L, D33A = target: T1, LptAmQ62L, D33A (Escherichia coli, UniProt P0ADV1, D33A/Q62L); test: FP indirect (competition) binding assay; design: species or system E. coli
T1 construct: His6-GB1 (N, cleaved yes); made in house; host or cells: E. coli BL21 (DE3)
Protocol: (§3) Protein stocks were purified and concentrated in buffer 1 [50 mM Na-Pi (pH 7) and 150 mM NaCl] and, if necessary, diluted to desired concentrations using buffer 2 [50 mM Na-Pi (pH 7), 150 mM NaCl, and 0.05% Tween 20]. Peptide stocks and fluorescently labeled peptide stocks were made in buffer 2. Every serial dilution consisted of 24 wells, the first well with the highest concentrate and the last well (well 24) with the lowest. First, 50 μl of buffer 2 was added to the wells 2 to 24 of each serial dilution. Then, 100 μl of concentrated unlabeled peptide/protein in their respective buffers was added to the first well. Fifty microliters were taken from the first well and added to the second well for a 1:1 serial dilution and continued for the 24 wells. […] Plates were covered with adhesive seals and left to incubate overnight at 4°C before FP measurements the next day. Anisotropy was measured using the Tecan Safire2 plate reader using a 10-nm bandwidth and setting the excitation and emission wavelengths to 635 and 670 nm, respectively. The G-factor (G) was also determined empirically as 1.094 for the instrument and included in all the anisotropy calculations.
(§4) For the indirect binding assays, r was calculated in the same manner as the direct binding assays. […] The control was subtracted from r to yield r′. Data were fit to a sigmoidal interpolation model on GraphPad Prism 9, and an IC50 was generated for each unlabeled peptide or protein measured.

LptAmD33A = target: T2, LptAmD33A (Escherichia coli, UniProt P0ADV1, D33A); test: FP indirect (competition) binding assay; design: species or system E. coli
T2 construct: His6-GB1 (N, cleaved yes); made in house; host or cells: E. coli BL21 (DE3)
Protocol: as §3, §4

[7] = system: Escherichia coli ATCC 25922 LptA E84D mutant; test: microbe, parasite or virus in culture; conditions: Table S9 panel
How it was run: as §2

[8] = system: Klebsiella pneumoniae ATCC 43816 LapB mutant; test: microbe, parasite or virus in culture; conditions: Table S9 panel; other mutation
How it was run: as §2

[9] = system: Klebsiella pneumoniae NCTC 13443 LpxC, LpxD mutant; test: microbe, parasite or virus in culture; conditions: Table S9 panel; other mutation
How it was run: as §2

[10] = system: Klebsiella pneumoniae NCTC 13443 LptA I36S mutant; test: microbe, parasite or virus in culture; conditions: Table S9 panel
How it was run: as §2

[11] = system: Klebsiella pneumoniae NCTC 13443 YejM mutant; test: microbe, parasite or virus in culture; conditions: Table S9 panel; other mutation
How it was run: as §2

[12] = system: Klebsiella pneumoniae ATCC 43816 PglJ, PhnJ, ThiH mutant; test: microbe, parasite or virus in culture; conditions: Table S9 panel; other mutation
How it was run: as §2

[13] = system: Klebsiella pneumoniae ATCC 43816 LptA I36N mutant; test: microbe, parasite or virus in culture; conditions: Table S9 panel
How it was run: as §2

[14] = system: Escherichia coli ATCC 25922 KdsD mutant; test: microbe, parasite or virus in culture; conditions: Table S9 panel; other mutation
How it was run: as §2

[15] = system: K. pneumoniae ATCC 43816 LptA Q62L mutant; test: microbe, parasite or virus in culture; conditions: Table S9 panel
How it was run: as §2

[16] = system: Klebsiella pneumoniae ATCC 43816 LptA I36S mutant; test: microbe, parasite or virus in culture; conditions: Table S9 panel
How it was run: as §2

[17] = system: Klebsiella pneumoniae ATCC 43816 LptA L116Q mutant; test: microbe, parasite or virus in culture; conditions: Table S9 panel
How it was run: as §2

T2 sequence (P0ADV1 28-159 D33A): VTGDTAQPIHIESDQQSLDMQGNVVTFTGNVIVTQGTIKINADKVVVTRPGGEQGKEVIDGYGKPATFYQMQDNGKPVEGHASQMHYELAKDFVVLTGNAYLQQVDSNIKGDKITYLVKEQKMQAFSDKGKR
T1 sequence (P0ADV1 28-159 D33A/Q62L): as the sequence (P0ADV1 28-159 D33A) above, with Q35L counted along it

## CC[C@H](C)[C@H](NC(=O)[C@@H]1C[C@@H](O)CN1C(=O)[C@@H](N)C(C)C)C(=O)N[C@H](C(=O)N[C@@H](Cc1ccc(O)cc1)C(=O)N[C@@H]1C(=O)N[C@@H](CC(N)=O)C(=O)N[C@@H](CCCNC(=N)N)C(=O)N[C@@H](CCN)C(=O)N[C@@H]([C@@H](C)O)C(=O)N[C@H](CCN)C(=O)N[C@@H](CCCCN)C(=O)N[C@H](C(=O)N[C@@H](CCN)C(=O)N[C@@H](CCCNC(=N)N)C(=O)N[C@@H](Cc2ccc(O)cc2)C(=O)O)CSSC1(C)C)[C@@H](C)O [Compound 6] (H-V[Hyp]ITY[Pen]NR[Dab]T[dDab]KC[Dab]RY-OH; disulfide 6-13)
[1]; at 40 mg/kg/day q12h
  Tolerability (IV bolus, q12h): mice died: 0/3
In vitro
  IC50 at 48 h: 1160 µM
Klebsiella pneumoniae
  MIC Klebsiella pneumoniae: 0.13 mg/L (≈ 0.0663 µM)
Enterobacter aerogenes
  MIC Enterobacter aerogenes: 0.5 mg/L (≈ 0.255 µM)
Moraxella catarrhalis
  MIC Moraxella catarrhalis: > 8 mg/L
Shigella flexneri
  MIC Shigella flexneri: 0.03 mg/L (≈ 0.0153 µM)
[2]
  MIC K. pneumoniae NCTC 13443 (NDM-1) Q62L mutant: >8 micrograms per milliliter
[3]
  MIC E. coli ATCC 25922 Q62L mutant: 2 micrograms per milliliter
[4]
  MIC K. pneumoniae ATCC 43816 Parent: 0.25 micrograms per milliliter
[5]
  MIC K. pneumoniae NCTC 13443 (NDM-1) Parent: 2 micrograms per milliliter
[6]
  MIC E. coli ATCC 25922 Parent: 0.125 micrograms per milliliter

## CC[C@H](C)[C@H](NC(=O)[C@@H]1C[C@@H](O)CN1C(=O)[C@@H](NC(=N)N)C(C)C)C(=O)N[C@H](C(=O)N[C@@H](Cc1ccc(O)cc1)C(=O)N[C@@H]1C(=O)N[C@@H](CC(N)=O)C(=O)N[C@@H](CCCNC(=N)N)C(=O)N[C@@H](CCN)C(=O)N[C@@H]([C@@H](C)O)C(=O)N[C@H](CCN)C(=O)N[C@@H](CCCCN)C(=O)N[C@H](C(=O)N[C@@H](CCN)C(=O)N[C@@H](CCCNC(=N)N)C(=O)N[C@@H](Cc2ccc(O)cc2)C(=O)O)CSSC1(C)C)[C@@H](C)O [Compound 7] ({Val(Nα-amidino)}-[Hyp]ITY[Pen]NR[Dab]T[dDab]KC[Dab]RY-OH; disulfide 5-12)
LptAmQ62L, D33A
  IC50: 0.0232 ± 0.01 µM
  Ki: 0.017 ± 0.0073 µM
LptAmD33A
  IC50: 0.0323 ± 0.0034 µM
  Ki: 0.0234 ± 0.0025 µM
[1]; at 30 mg/kg/day q12h
  Tolerability (IV bolus, q12h): mice died: 0/3
[1]; mice, intravenous, twice a day (q12h)
  Tolerated dose, intravenous BID: up to 30 mg/kg per day
In vitro
  IC50 at 48 h: 456 µM
Klebsiella pneumoniae
  MIC Klebsiella pneumoniae: 0.25 mg/L (≈ 0.125 µM)
Enterobacter aerogenes
  MIC Enterobacter aerogenes: 1 mg/L (≈ 0.5 µM)
Moraxella catarrhalis
  MIC Moraxella catarrhalis: > 8 mg/L
Shigella flexneri
  MIC Shigella flexneri: 0.06 mg/L (≈ 0.03 µM)
[7]
  MIC Escherichia coli ATCC 25922 LptA E84D (1x): 1 mg/L (≈ 0.5 µM)
[2]
  MIC K. pneumoniae NCTC 13443 (NDM-1) Q62L mutant: >8 micrograms per milliliter
[2]; Table S9 panel
  MIC Klebsiella pneumoniae NCTC 13443 LptA Q62L (5x): > 16 mg/L
[8]
  MIC Klebsiella pneumoniae ATCC 43816 LapB (1x): 0.5 mg/L (≈ 0.25 µM)
[9]
  MIC Klebsiella pneumoniae NCTC 13443 LpxC, LpxD (1x): 1 mg/L (≈ 0.5 µM)
[10]
  MIC Klebsiella pneumoniae NCTC 13443 LptA I36S (2x): 8 mg/L (≈ 4 µM)
[11]
  MIC Klebsiella pneumoniae NCTC 13443 YejM (1x): 2 mg/L (≈ 0.999 µM)
[3]
  MIC E. coli ATCC 25922 Q62L mutant: 4 micrograms per milliliter
[3]; Table S9 panel
  MIC Escherichia coli ATCC 25922 LptA Q62L (7x): 2 mg/L (≈ 0.999 µM)
[12]
  MIC Klebsiella pneumoniae ATCC 43816 PglJ, PhnJ, ThiH (1x): 0.5 mg/L (≈ 0.25 µM)
[4]
  MIC K. pneumoniae ATCC 43816 Parent: 0.125 micrograms per milliliter
  MIC Klebsiella pneumoniae ATCC 43816 WT: 0.25 mg/L (≈ 0.125 µM)
[5]
  MIC K. pneumoniae NCTC 13443 (NDM-1) Parent: 0.5 micrograms per milliliter
[5]; Table S9 panel, WT
  MIC Klebsiella pneumoniae NCTC 13443 WT: 1 mg/L (≈ 0.5 µM)
[13]
  MIC Klebsiella pneumoniae ATCC 43816 LptA I36N (1x): 2 mg/L (≈ 0.999 µM)
[14]
  MIC Escherichia coli ATCC 25922 KdsD (2x): 0.5 mg/L (≈ 0.25 µM)
[15]
  MIC Klebsiella pneumoniae ATCC 43816 LptA Q62L (4x): 8 mg/L (≈ 4 µM)
[6]
  MIC E. coli ATCC 25922 Parent: 0.063 micrograms per milliliter
[6]; Table S9 panel, WT
  MIC Escherichia coli ATCC 25922 WT: 0.125 mg/L (≈ 0.0625 µM)
[16]
  MIC Klebsiella pneumoniae ATCC 43816 LptA I36S (1x): 2 mg/L (≈ 0.999 µM)
[17]
  MIC Klebsiella pneumoniae ATCC 43816 LptA L116Q (1x): 2 mg/L (≈ 0.999 µM)
